According to patent US20220289732A1, “HETEROCYCLIC WDR5 INHIBITORS AS ANTI-CANCER COMPOUNDS” (NOVARTIS AG, priority 2019, published 2022):
Read-outs that look alike come from different tables or passages of the source.

Key:
WDR5 = WDR5 (Homo sapiens, UniProt P61964); assay: WDR5 HTRF binding assay; details: read-out: (a) WDR5 HTRF Pep Val v.1[Inhibitor/IC50]Qualified AC50
Procedure, shortened: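 6 nM WDR5 and 20 nM biotin-MLL1 WIN peptide (3762-3773) were incubated with compound (12-point, 3-fold dilutions) in pH 7.5 Hepes/NaCl/DTT buffer for 20 min at rt. Streptavidin-APC plus anti-His-Eu were then added for 1 hr, with HTRF read at 665/615. IC50 was fit from control-normalized activity; the counter assay used 15 nM biotin-PEG-His peptide.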

[1] = target: wild type MLL1 four-member complex (MLL1-4C) (Homo sapiens, UniProt P61964); assay: MLL1 LC-MS assay (SAH production); format: biochemical; details: read-out: (b) MLL LCMS Peptide Val.v.1 Qualified AC50
Procedure, shortened: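 MLL1-4C (30 nM final) was preincubated 20 min with compound (3-fold dilutions, 8 or 12 points) and SAM in Tris-HCl pH 8.0 buffer. H3K4me0 peptide (histone H3[1-21]-biotin) was then added, giving final 2.5 μM SAM and 10 μM substrate, and reactions ran 120 min at rt. After TFA/d4-SAH quench, SAH was quantified by LC-MS/MS and IC50 fitted from control-normalised activity.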

MV4-11 cells = assay: MV4-11 6-day cell growth CTG (CellTiter-Glo) assay; format: cell-based; details: 6 days, read-out: (c) MLL/WDR5 cell proliferation assay//MLL/WDR5 proliferation MV4:11 Qualified AC50
Procedure, shortened: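 Exponentially growing MV4-11 AML cells (RPMI 1640, 10% FBS) seeded at 300 cells/well with 12-point 1:3 compound dilutions, top final concentration 50 μM. Viability read by CellTiter-Glo luminescence after 6 days at 37° C; % inhibition vs DMSO-only wells fitted to dose-response for IC50.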

Structure (SMILES) | IC50 (WDR5) | AC50 [1] | AC50 (MV4-11 cells; Homo sapiens, MV4-11, 144 h) | AC50 (MV4-11 cells)
CCOc1cc([C@H](C)N2CCc3c(cc(CCN(C)CC)cc3-c3cn4ccnc4cc3C)C2=O)ncc1C#N [Example 190, (S)-4-ethoxy-6-(1-(7-(2-(ethyl(methyl)amino)ethyl)-5-(7-methylimidazo[1,2-a]pyridin-6-yl)-1-oxo-3,4-dihydroisoquinolin-2(1H)-yl)ethyl)nicotinonitrile] | < 10 nM | 10 to 1000 nM | 10 to 1000 nM | –
CCOc1cc([C@H](C)N2CCc3c(cc(CCN(C)CC)cc3-c3c(OC)ccnc3C)C2=O)ncc1C#N [Example 191, 4-ethoxy-6-((1S)-1-(7-(2-(ethyl(methyl)amino)ethyl)-5-(4-methoxy-2-methylpyridin-3-yl)-1-oxo-3,4-dihydroisoquinolin-2(1H)-yl)ethyl)nicotinonitrile] | < 10 nM | 10 to 1000 nM | 10 to 1000 nM | –
CCOc1cc([C@H](C)N2CCc3c(cc(CCN(C)CC)cc3-c3cc(CC#N)cnc3C)C2=O)ncc1C#N [Example 192, (S)-6-(1-(5-(5-(cyanomethyl)-2-methylpyridin-3-yl)-7-(2-(ethyl(methyl)amino)ethyl)-1-oxo-3,4-dihydroisoquinolin-2(1H)-yl)ethyl)-4-ethoxynicotinonitrile] | < 10 nM | 10 to 1000 nM | 10 to 1000 nM | –
CCOc1cc([C@H](C)N2CCc3c(cc(CCN(C)CC)cc3-c3cn(C)c(=O)cc3CC)C2=O)ncc1C#N [Example 193, (S)-4-ethoxy-6-(1-(7-(2-(ethyl(methyl)amino)ethyl)-5-(4-ethyl-1-methyl-6-oxo-1,6-dihydropyridin-3-yl)-1-oxo-3,4-dihydroisoquinolin-2(1H)-yl)ethyl)nicotinonitrile] | < 10 nM | 10 to 1000 nM | 10 to 1000 nM | –
CCOc1cc([C@H](C)N2CCc3c(cc(CCN(C)CC)cc3-c3ccn(C)c(=O)c3Cl)C2=O)ncc1C#N [Example 194, (S)-6-(1-(5-(3-chloro-1-methyl-2-oxo-1,2-dihydropyridin-4-yl)-7-(2-(ethyl(methyl)amino)ethyl)-1-oxo-3,4-dihydroisoquinolin-2(1H)-yl)ethyl)-4-ethoxynicotinonitrile] | < 10 nM | 10 to 1000 nM | 10 to 1000 nM | –
CCOc1cc([C@H](C)N2CCc3c(cc(CCN(C)CC)cc3-c3ccn(C)c(=O)c3C(F)(F)F)C2=O)ncc1C#N [Example 195, (S)-4-ethoxy-6-(1-(7-(2-(ethyl(methyl)amino)ethyl)-5-(1-methyl-2-oxo-3-(trifluoromethyl)-1,2-dihydropyridin-4-yl)-1-oxo-3,4-dihydroisoquinolin-2(1H)-yl)ethyl)nicotinonitrile] | 10 to 1000 nM | 10 to 1000 nM | 10 to 1000 nM | –
CCOc1cc(CN2CCc3c(cc(CCN(C)CC)cc3-c3cn(C)c(=O)cc3C(F)(F)F)C2=O)ncc1C#N [Example 196, 4-ethoxy-6-((7-(2-(ethyl(methyl)amino)ethyl)-5-(1-methyl-6-oxo-4-(trifluoromethyl)-1,6-dihydropyridin-3-yl)-1-oxo-3,4-dihydroisoquinolin-2(1H)-yl)methyl)nicotinonitrile] | 10 to 1000 nM | 10 to 1000 nM | 10 to 1000 nM | –
CCOc1cc(C(C)N2CCc3c(cc(CCN(C)CC)cc3-c3cc(Cl)cnc3C)C2=O)ncc1C#N (stereo not drawn) [Example 197, 6-(1-(5-(5-chloro-2-methylpyridin-3-yl)-7-(2-(ethyl(methyl)amino)ethyl)-1-oxo-3,4-dihydroisoquinolin-2(1H)-yl)ethyl)-4-ethoxynicotinonitrile] | 10 to 1000 nM | 10 to 1000 nM | 10 to 1000 nM | –
CCOc1cc([C@H](C)N2CCc3c(cc(CCN(C)CC)cc3-c3ccc(N)nc3C(F)(F)F)C2=O)ncc1C#N [Example 198, (S)-6-(1-(5-(6-amino-2-(trifluoromethyl)pyridin-3-yl)-7-(2-(ethyl(methyl)amino)ethyl)-1-oxo-3,4-dihydroisoquinolin-2(1H)-yl)ethyl)-4-ethoxynicotinonitrile] | 10 to 1000 nM | 10 to 1000 nM | < 10 nM | –
CCOc1cc([C@@H](C)N2CCc3c(cc(CCN(C)CC)cc3-c3ccc(N)nc3C(F)(F)F)C2=O)ncc1C#N [Example 199, (R)-6-(1-(5-(6-amino-2-(trifluoromethyl)pyridin-3-yl)-7-(2-(ethyl(methyl)amino)ethyl)-1-oxo-3,4-dihydroisoquinolin-2(1H)-yl)ethyl)-4-ethoxynicotinonitrile] | 10 to 1000 nM | 10 to 1000 nM | 10 to 1000 nM | –
CCOc1cc(C(C)N2CCc3c(cc(CCN(C)CC)cc3-c3ccc(N)nc3C(F)F)C2=O)ncc1C#N (stereo not drawn) [Example 200, 6-(1-(5-(6-amino-2-(difluoromethyl)pyridin-3-yl)-7-(2-(ethyl(methyl)amino)ethyl)-1-oxo-3,4-dihydroisoquinolin-2(1H)-yl)ethyl)-4-ethoxynicotinonitrile] | 10 to 1000 nM | 10 to 1000 nM | 10 to 1000 nM | –
CCOc1cc(CN2CCc3c(cc(CCN(C)CC)cc3-c3cc(N)cnc3C)C2=O)ncc1C#N [Example 201, 6-((5-(5-amino-2-methylpyridin-3-yl)-7-(2-(ethyl(methyl)amino)ethyl)-1-oxo-3,4-dihydroisoquinolin-2(1H)-yl)methyl)-4-ethoxynicotinonitrile] | 10 to 1000 nM | 10 to 1000 nM | 10 to 1000 nM | –
CCOc1cc([C@H](C)N2CCc3c(cc(CCN(C)CC)cc3-c3cc(N)ncc3C(F)(F)F)C2=O)ncc1C#N [Example 202, (S)-6-(1-(5-(2-amino-5-(trifluoromethyl)pyridin-4-yl)-7-(2-(ethyl(methyl)amino)ethyl)-1-oxo-3,4-dihydroisoquinolin-2(1H)-yl)ethyl)-4-ethoxynicotinonitrile] | 10 to 1000 nM | 10 to 1000 nM | 10 to 1000 nM | –
CCOc1cc(C(C)N2CCc3c(cc(CCN(C)CC)cc3-c3cc(Cl)nnc3C)C2=O)ncc1C#N (stereo not drawn) [Example 203, 6-(1-(5-(6-chloro-3-methylpyridazin-4-yI)-7-(2-(ethyl(methyl)amino)ethyl)-1-oxo-3,4-dihydroisoquinolin-2(1H)-yl)ethyl)-4-ethoxynicotinonitrile] | 10 to 1000 nM | 10 to 1000 nM | 10 to 1000 nM | –
CCOc1cc([C@H](C)N2CCc3c(cc(CCN(C)CC)cc3-c3cn(C)c(=O)cc3C(F)(F)F)C2=O)ncc1F [Example 204, (S)-2-(1-(4-ethoxy-5-fluompyridin-2-yl)ethyl)-7-(2-(ethyl(methyl)amino)ethyl)-5-(1-methyl-6-oxo-4-(trifluoromethyl)-1,6-dihydropyridin-3-yl)-3,4-dihydroisoquinolin-1(2H)-one] | 10 to 1000 nM | 10 to 1000 nM | – | 10 to 1000 nM
CCOc1cc(C(C)N2CCc3c(cc(CCN(C)CC)cc3-c3cc(C)nn3C)C2=O)ncc1C#N (stereo not drawn) [Example 205, 6-(1-(5-(1,3-dimethyl-1H-pyrazol-5-yl)-7-(2-(ethyl(methyl)amino)ethyl)-1-oxo-3,4-dihydroisoquinolin-2(1H)-yl)ethyl)-4-ethoxynicotinonitrile] | 10 to 1000 nM | 10 to 1000 nM | 10 to 1000 nM | –
CCOc1cc(C(C)N2CCc3c(cc(CCN(C)CC)cc3-c3cc4[nH]cnc4nc3C)C2=O)ncc1C#N (stereo not drawn) [Example 206, 4-ethoxy-6-(1-(7-(2-(ethyl(methyl)amino)ethyl)-5-(5-methyl-1H-imidazo[4,5-b]pyridin-6-yl)-1-oxo-3,4-dihydroisoquinolin-2(1H)-yl)ethyl)nicotinonitrile] | 10 to 1000 nM | 10 to 1000 nM | 10 to 1000 nM | –
CCOc1cc(C(C)N2CCc3c(cc(CCN(C)CC)cc3N3CCCC3)C2=O)ncc1C#N (stereo not drawn) [Example 207, 4-ethoxy-6-(1-(7-(2-(ethyl(methyl)amino)ethyl)-1-oxo-5-(pyrrolidin-1-yl)-3,4-dihydroisoquinolin-2(1H)-yl)ethyl)nicotinonitrile] | 10 to 1000 nM | 10 to 1000 nM | 1000 to 25000 nM | –
CCOc1cc(C(C)N2CCc3c(cc(CCN(C)CC)cc3-n3ccnc3)C2=O)ncc1C#N (stereo not drawn) [Example 208] | 10 to 1000 nM | 10 to 1000 nM | 1000 to 25000 nM | –
CCOc1cc([C@H](C)N2CCc3c(cc(CCN(C)CC)cc3N3CC[C@H](O)C3)C2=O)ncc1C#N [Example 210] | 10 to 1000 nM | 10 to 1000 nM | 1000 to 25000 nM | –
CCOc1cc(C(C)N2CCc3c(cc(CCN(C)CC)cc3-c3cc(C)nnc3C)C2=O)ncc1C (stereo not drawn) [Example 211, 5-(3,6-dimethylpyridazin-4-yl)-2-(1-(4-ethoxy-5-methylpyridin-2-yl)ethyl)-7-(2-(ethyl(methyl)amino)ethyl)-3,4-dihydroisoquinolin-1(2H)-one] | < 10 nM | 10 to 1000 nM | 10 to 1000 nM | –
CCOc1cc(CN2CCc3c(cc(CCN(C)CC)cc3-c3cc(C)nnc3C)C2=O)ncc1C [Example 212, 5-(3,6-dimethylpyridazin-4-yl)-2-((4-ethoxy-5-methylpyridin-2-yl)methyl)-7-(2-(ethyl(methyl)amino)ethyl)-3,4-dihydroisoquinolin-1(2H)-one] | < 10 nM | 10 to 1000 nM | 10 to 1000 nM | –
